Experimental data taken from PMC9495826, “Membranolytic Mechanism of Amphiphilic Antimicrobial β-Stranded [KL]n Peptides” (Biomedicines, 2022).
Like-named read-outs stand apart in the source and are kept apart here. No end group written: not given here.

Columns and labels:
[1] = tested on: Bacillus subtilis (DSM 347); type: cell-based
Protocol: (§1) The antimicrobial activity of the KL peptides was determined with a MIC assay. Peptide activity was tested against Gram-negative Escherichia coli (DSM 1116) and Enterobacter helveticus (DSM 18390) and against Gram-positive Bacillus subtilis (DSM 347) and Staphylococcus xylosus (DSM 20287) as previously reported. Our standard MIC assay was modified to avoid unnecessary exposure of peptides to the phosphate-containing growth medium, which was previously found to affect the results due to phosphate-induced aggregation of peptides. Details can be found in the Supplementary Materials.
(§2) The activity of KL and LK peptides against bacteria was examined using a MIC assay. […] We have previously shown that KL peptides, especially the longer ones, aggregate vigorously in the presence of phosphate ions. […] Therefore, here we used a modified MIC assay that was developed in our previous study, as described in the Methods section. In this approach, a two-fold dilution series was first prepared with peptides dissolved in water, and only thereafter were the bacteria in the medium added so that the peptides were simultaneously exposed to bacteria and phosphate-containing medium.
(§3) 1.3 MIC (minimum inhibitory concentration) assay
(§4) Antimicrobial activity was measured by a minimal inhibitory concentration (MIC) assay, carried out with Gram-positive Bacillus subtilis (DSM 347) and Staphylococcus xylosus (DSM 20287) and with Gram-negative Escherichia coli (DSM 1116) and Enterobacter helvet-icus (DSM 18390). Bacteria were grown in Müller-Hinton medium at 37°C overnight. Bac-terial solutions with OD550 = 0.2 was further diluted 1:100 for Gram-positive and 1:1000 for Gram-negative bacteria to get a concentration of […] colony forming units (CFU)/mL. Mi-crotiter plates (96 wells of 100 μL) were filled peptide solution to obtain serial 2-fold dilu-tion series of peptides. 50 µL of pure water was first added to each well. To the first well 50 µL peptide solution was added, after mixing 50 µL of this was transferred to the second well and so on. After all plates were prepared, 50 µL bacterial solution in double-concen-tration MHM was added to the wells (except for the final row of each plate) to give a final concentration of 5 × 10^5 CFU/mL in the wells. Thus, peptides got in contact with phosphate and bacteria simultaneously. […]
(§5) gregate stronlgy in contact with the phosphate containing growth medium. The two final rows of each plate remained without peptide, so that the penultimate data point served as the positive co ntrol (no peptide), and the final one as the negative control (not inoculated). The plates were incubated at 37°C for 20 h, and cell viability was probed by addition of 20 µL 0.2 mg/mL resazurin and incubation at 37°C for 2 h. The MIC value was determined visually as the lowest peptide concentration inhibiting bacterial growth. […]
(§6) Unencapsulated dye was removed by gel filtration using spin columns filled with Sephacryl 100-HR (Sigma-Aldrich, Taufkirchen, Germany), and equilibrated with an elu-tion buffer (150 mM NaCl, 10 mM HEPES, pH 7.5), which balances the internal vesicle

[2] = tested on: Escherichia coli (DSM 1116); type: cell-based
Protocol: as §1, §2, §3, §4, §5, §6

[3] = tested on: Staphylococcus xylosus (DSM 20287); type: cell-based
Protocol: as §1, §2, §3, §4, §5, §6

[4] = tested on: Enterobacter helveticus (DSM 18390); type: cell-based
Protocol: as §1, §2, §3, §4, §5, §6

[5] = tested on: erythrocytes; experiment: Hemolysis assay; type: cell-based
[6] = tested on: four bacterial strains; details: earlier study; ref [15]; cited from earlier work
Text: (§7) Many natural and man-made AMPs are cationic and fold into simple amphiphilic α-helices. Much fewer examples exist of another fundamental type of secondary structure, namely amphiphilic β-strands. A classic model sequence, [KIGAKI]3-NH2, had been designed from alternating polar and hydrophobic side chains. Recently, we presented an even simpler group of so-called KL peptides, consisting of the alternating (lysine-leucine) dipeptide repeat: [KL]n-NH2. Recently, four KLx peptides of different lengths (x = number of residues, x = 2n) with 6–18 amino acids were compared in terms of ...

[7] = tested on: four bacterial strains; experiment: MIC assay, overall statement for the four strains; type: cell-based, E. coli, E. helveticus, B. subtilis, S. xylosus; details: modified MIC assay
Protocol: as §1
The activity of KL and LK peptides against bacteria was examined using a MIC assay. […] We have previously shown that KL peptides, especially the longer ones, aggregate vigorously in the presence of phosphate ions. […] Therefore, here we used a modified MIC assay that was developed in our previous study, as described in the Methods section. […]
Antimicrobial activity was measured by a minimal inhibitory concentration (MIC) assay, carried out with Gram-positive Bacillus subtilis (DSM 347) and Staphylococcus xylosus (DSM 20287) and with Gram-negative Escherichia coli (DSM 1116) and Enterobacter helvet-icus (DSM 18390). […]
gregate stronlgy in contact with the phosphate containing growth medium. […] The MIC value was determined visually as the lowest peptide concentration inhibiting bacterial growth. […]

[8] = tested on: erythrocytes; details: cited from earlier work
Text: as §7

[9] = Gram-positive, modified MIC: 2-fold dilution series of peptide in water, then bacteria in double-concentration Müller-Hinton medium, 5 × 10^5 CFU/mL, 37°C 20 h, resazurin, visual
[10] = Gram-negative, modified MIC: 2-fold dilution series of peptide in water, then bacteria in double-concentration Müller-Hinton medium, 5 × 10^5 CFU/mL, 37°C 20 h, resazurin, visual

Row | Substance | MIC B. subtilis ([1]; DSM 347, 20 h) | MIC E. coli ([2]; DSM 1116, 20 h) | MIC S. xylosus ([3]; DSM 20287, 20 h) | MIC E. helveticus ([4]; DSM 18390, 20 h) | Hemolysis HC50 (concentration of peptide giving 50% hemolysis) ([5]; 20 h) | further results
1 | LKLKLKLKL-NH2 [LK9] | 4 µg/mL | 16 µg/mL | 2 µg/mL | 4 µg/mL | 145 µg/mL | 
2 | KLKLKLKLKLKLKLKLKLKL-NH2 [KL20] | 32 µg/mL | 32 µg/mL | 16 µg/mL | 32 µg/mL | <1 µg/mL | 
3 | KLKLKLKLKLKLKLK-NH2 [KL15] | 4 µg/mL | 8 µg/mL | 2 µg/mL | 2 µg/mL | 2 µg/mL | 
4 | KLKLKLKLKL-NH2 [KL10] | 2 µg/mL | 4 µg/mL | 2 µg/mL | 2 µg/mL | 47 µg/mL | Hemolytic activity (in words) [5]: considerably more hemolytic than LK10; Antimicrobial effect (in words) [6]: better antimicrobial effect than KL6, KL14 or KL18; Antimicrobial activity (in words) [7]: highest activity
5 | KLKLKLKLKLKLKL-NH2 [KL14] | 4 µg/mL | 8 µg/mL | 4 µg/mL | 4 µg/mL | 1 µg/mL | Hemolytic activity (in words) [8]: highly hemolytic
6 | KLKLKLKLKLKLK-NH2 [KL13] | 2 µg/mL | 2 µg/mL | 1 µg/mL | 1 µg/mL | 9 µg/mL | 
7 | LKLKLKLKLKLKL-NH2 [LK13] | 8 µg/mL | 8 µg/mL | 4 µg/mL | 4 µg/mL | 2 µg/mL | 
8 | KLKLKLKLKLKLKLKLKL-NH2 [KL18] | 32 µg/mL | 32 µg/mL | 8 µg/mL | 16 µg/mL | 1 µg/mL | Hemolytic activity (in words) [8]: highly hemolytic
9 | KLKLKLKLKLK-NH2 [KL11] | 4 µg/mL | 4 µg/mL | 1 µg/mL | 2 µg/mL | >256 µg/mL | Hemolytic activity (in words) [5]: very low hemolytic activity
10 | LKLKLKLKLK-NH2 [LK10] | 4 µg/mL | 8 µg/mL | 1 µg/mL | 2 µg/mL | 256 µg/mL | 
11 | KLKLKL-NH2 [KL6] | >256 µg/mL | >256 µg/mL | 256 µg/mL | 128 µg/mL | >256 µg/mL | Hemolytic activity (in words) [5]: very low hemolytic activity
12 | LKLKLKLKLKL-NH2 [LK11] | 2 µg/mL | 2 µg/mL | 1 µg/mL | 1 µg/mL | 3 µg/mL | 
13 | LKLKLKLKLKLKLKL-NH2 [LK15] | 16 µg/mL | 64 µg/mL | 16 µg/mL | 16 µg/mL | <1 µg/mL | 
14 | KLKLKLKLKLKLKLKLKLKLKL-NH2 [KL22] | 32 µg/mL | 32 µg/mL | 16 µg/mL | 32 µg/mL | <1 µg/mL | 
15 | KLKLKLKLKLKLKLKL-NH2 [KL16] | 16 µg/mL | 32 µg/mL | 8 µg/mL | 8 µg/mL | 2 µg/mL | 
16 | KLKLKLKLKLKLKLKLKLKLKLKLKL-NH2 [KL26] |  |  |  |  |  | MIC B. subtilis [1, 9]: 32 µg/mL; MIC E. coli [2, 10]: 64 µg/mL; MIC S. xylosus [3, 9]: 16 µg/mL; MIC E. helveticus [4, 10]: 16 µg/mL; Hemolysis HC50 (concentration of peptide giving 50% hemolysis) ([5]; interpolated from concentration-dependent curves, washed erythrocytes of healthy donors, 37°C 30 min, absorbance 540 nm, 100% = 1% Triton X-100): <1 µg/mL; Hemolysis ([5]; peptide 1 µg/mL, erythrocytes of healthy donors, 37°C 30 min, A540, relative to Triton-X 100%, average of three absorbance measurements): 52%; Hemolysis ([5]; peptide 2 µg/mL, erythrocytes of healthy donors, 37°C 30 min, A540, relative to Triton-X 100%, average of three absorbance measurements): 71%; Hemolysis ([5]; peptide 4 µg/mL, erythrocytes of healthy donors, 37°C 30 min, A540, relative to Triton-X 100%, average of three absorbance measurements): 72%; Hemolysis ([5]; peptide 8 µg/mL, erythrocytes of healthy donors, 37°C 30 min, A540, relative to Triton-X 100%, average of three absorbance measurements): 72%; Hemolysis ([5]; peptide 16 µg/mL, erythrocytes of healthy donors, 37°C 30 min, A540, relative to Triton-X 100%, average of three absorbance measurements): 56%; Hemolysis ([5]; peptide 32 µg/mL, erythrocytes of healthy donors, 37°C 30 min, A540, relative to Triton-X 100%, average of three absorbance measurements): 50%; Hemolysis ([5]; peptide 64 µg/mL, erythrocytes of healthy donors, 37°C 30 min, A540, relative to Triton-X 100%, average of three absorbance measurements): 47%; Hemolysis ([5]; peptide 128 µg/mL, erythrocytes of healthy donors, 37°C 30 min, A540, relative to Triton-X 100%, average of three absorbance measurements): 42%; Hemolysis ([5]; peptide 256 µg/mL, erythrocytes of healthy donors, 37°C 30 min, A540, relative to Triton-X 100%, average of three absorbance measurements): 39%
17 | KLKLKLKLKLKL-NH2 [KL12] | 2 µg/mL | 2 µg/mL | 2 µg/mL | 2 µg/mL | 8 µg/mL | 
18 | KLKLKLKLK-NH2 [KL9] | 16 µg/mL | 32 µg/mL | 2 µg/mL | 8 µg/mL | >256 µg/mL | Hemolysis ([5]; 20 h, 1 µg/mL): 5%; Hemolysis ([5]; 20 h, 2 µg/mL): 6%; Hemolysis ([5]; 20 h, 4 µg/mL): 8%; Hemolysis ([5]; 20 h, 8 µg/mL): 9%; Hemolysis ([5]; 20 h, 16 µg/mL): 9%; Hemolysis ([5]; 20 h, 32 µg/mL): 11%; Hemolysis ([5]; 20 h, 64 µg/mL): 14%; Hemolysis ([5]; 20 h, 128 µg/mL): 18%; Hemolysis ([5]; 20 h, 256 µg/mL): 20%; Hemolytic activity (in words) ([5]; erythrocytes, 37°C 30 min): very low hemolytic activity
19 | KLKLKLKL-NH2 [KL8] | 16 µg/mL | 64 µg/mL | 8 µg/mL | 16 µg/mL | >256 µg/mL | Hemolytic activity (in words) [5]: very low hemolytic activity
20 | KLKLKLKLKLKLKLKLKLKLKLKL-NH2 [KL24] | 32 µg/mL | 32 µg/mL | 8 µg/mL | 16 µg/mL | <1 µg/mL | 
